The results in this text go back to the METLIN SMRT retention time set (Domingo-Almenara et al. 2019).

The data set can be described thus: gradient 5% acetonitrile 3 min, to 50% in 2 min, to 85% in 15 min, held 3 min, 100 µL/min. Conditions: column: Zorbax Extend-C18 2.1 x 50 mm; eluents: water / acetonitrile, 0.1% formic acid. The method, boiled down: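 In both positive and negative ionization mode, a quadrupole time-of-flight mass spectrometer coupled to HPLC analyzed pure standards run in mixtures of ~100 molecules. The Zorbax Extend-C18 column (2.1 × 50 mm, 1.8 μm) was operated at 100 μL/min with water and acetonitrile, each containing 0.1% formic acid. The dead volume was 40 μL and the dwell volume 900 μL. Retention time came from adduct peaks that were computationally picked and individually inspected by hand.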
As to `COc1ccc(-c2nc3ncccn3c2Nc2cccc(C)c2)cc1`, the RP-LC retention time is 743 s. For `COc1ccc(NC(=O)CN2c3ccc(F)cc3-c3ccccc3S2(=O)=O)c(OC)c1`, the RP-LC retention time was 975 s. Under `CC(C)Cn1cc(CCNC(=O)c2ccc(F)cc2F)c2cccnc21` stands 834 s; under `CC1CCCCN1S(=O)(=O)c1ccc2nc(N3CCN(c4cccc(Cl)c4)CC3)ccc2c1` (stereo not drawn), 1250 s; under `O=C(c1ccc(F)cc1)N1CCN(c2ccc(N3CCCC3)nn2)CC1`, 604 s. The molecule `COc1ccc(C(O)CN2CCN(c3ccc(F)cc3)CC2)cc1` (stereo not drawn) gave an RP-LC retention time of 652 s. Under `COc1ccccc1NC(=O)C1CCN(c2cc(N3CCSCC3)ncn2)CC1` stands 684 s; under `COc1cccc(NC(=O)N(C)CCc2noc(COc3ccccc3F)n2)c1`, 692 s.

In turn, `CC(=O)N1CCc2cc(N3CC(C(=O)Nc4cccc(Br)c4)CC3=O)ccc21` (stereo not drawn) had an RP-LC retention time of 780 s. Under `Cc1cccc(N2CCN(c3cc(-c4ccccc4)nc4c(-c5ccccc5)cnn34)CC2)n1` stands 1010 s; under `CCc1noc(-c2ccc(-n3cnc(C(=O)NC4CCCCCC4)c3)nc2)n1`, 968 s; under `CN(C)C(CNC(=O)c1ccc(Br)o1)c1cn(C)c2ccccc12` (stereo not drawn), 578 s. To `O=P(O)(O)c1cc(-c2ccccc2)oc1-c1ccccc1` belongs 852 s; to `Cc1ccc(Cn2cc(-c3ccncc3)cc2C(=O)NCCN(C)C)cc1`, 570 s. Under `O=C(Nc1nnc(Cc2cccs2)o1)c1ccc(S(=O)(=O)N2CCOCC2)cc1` stands 691 s; under `Cc1ccc(-c2noc(C3CCCN3C(=O)c3ccc(CS(=O)(=O)c4ccccc4)cc3)n2)cc1` (stereo not drawn), 1010 s; under `O=C(C1CC(=O)N(c2ccccc2)C1)N1CCN(c2ccc(-c3noc(C4CCC4)n3)cc2)CC1` (stereo not drawn), 970 s.

Consider `CCCC(=O)Nc1cc2c(cc1S(=O)(=O)c1ccccc1)n(CC)c(=O)n2CC`, for which the RP-LC retention time was found to be 883 s. With `O=C(c1cccc2[nH]ccc12)N1CCC2(CC1)N=C(c1ccc(Cl)cc1)NO2`, the RP-LC retention time was 804 s. To `CCOc1ccccc1-c1nc(C2CC(=O)N(c3ccc(C)cc3)C2)no1` (stereo not drawn) belongs 1090 s; to `O=C(Nc1cc(Cl)cc(Cl)c1)N1CCc2nc[nH]c2C1`, 642 s; to `CCCS(=O)(=O)N1CCCN(C2=NS(=O)(=O)C(c3ccc(Cl)cc3)=C2C)CC1`, 934 s. To `COC(=O)c1cc(S(=O)(=O)N2CCCC2C(=O)NCc2ccccc2)cn1C` (stereo not drawn) belongs 781 s. Turning to `Cc1nc2c(sc3nc(-c4ccccc4)ccc32)c(=O)n1CC(=O)Nc1cccc(C(C)C)c1`, the RP-LC retention time stood at 1210 s. To `O=C(NCc1ccsc1)C(=O)NCc1ccccc1Cl` belongs 842 s. Under `Cc1ccc(-c2nnc(N3CCC(C(=O)N4CCN(C5CCCCC5)CC4)CC3)o2)cc1` stands 644 s; under `CCn1cc(CCNC(=O)c2cccnc2SC)c2cccnc21`, 647 s; under `COc1ccc(NC(=O)CCNc2cnc3cnccn23)c(C)c1`, 576 s. To `COc1cc(C(=O)Nc2cccc(N3CCCS3(=O)=O)c2)c([N+](=O)[O-])cc1OC` belongs 681 s; to `CCc1ccccc1NC(=O)Nc1ccc2nncn2c1`, 662 s; to `CNC(=O)c1nsc(C(=O)OC)c1N`, 677 s. In the case of `CC(=O)N1CCC(C(=O)N2CCN(S(=O)(=O)c3ccc4c(c3)sc(=O)n4C(C)C)CC2)CC1`, the RP-LC retention time stood at 727 s. To `O=C(NCc1nc(-c2ccc(N3CCCC3)cc2)no1)c1cccs1` belongs 962 s; to `Cc1ccccc1S(=O)(=O)N(C)CC1CCOCC1`, 837 s. Regarding `CCOc1ccc(-c2noc(-c3nn(-c4ccccc4)ccc3=O)n2)cc1`, the RP-LC retention time worked out at 919 s.

In turn, `CCOC(=O)C1CCN(S(=O)(=O)c2cccc(-c3nc(-c4ccccc4)no3)c2)CC1` displayed an RP-LC retention time of 1210 s. Under `COc1ccc(-c2noc(Cn3ccn(-c4cc(C)ccc4C)c(=O)c3=O)n2)cc1` stands 920 s; under `Cc1ccccc1-c1nnc(CSc2nnc(NC(=O)c3ccc(Br)o3)s2)o1`, 919 s; under `CCc1nnc2ccc(-c3noc(CNC(=O)c4ccccc4)n3)cn12`, 651 s.

In turn, `O=C(NCCN1CCOCC1)c1csc(-c2ccc(N3CCCC3)nc2)n1` displayed an RP-LC retention time of 542 s. Under `CCCc1noc(-c2ccnc(-n3ncc(C(=O)Nc4ccc(F)cc4)c3C)c2)n1` stands 1120 s; under `O=c1ccc(-c2ccc3c(c2)OCO3)nn1CCc1nc(-c2ccncc2)no1`, 730 s; under `CCOc1ccc(-c2nc3ncccn3c2NCc2ccc(C)cc2)cc1OC`, 773 s. Under `Cc1cc(C)cc(NC(=O)C2CCN(C(=O)C3Sc4ccccc4NC3=O)CC2)c1` (stereo not drawn) stands 818 s; under `CCn1ccc(C(=O)Nc2ccc3c(c2)Sc2ncccc2C(=O)N3C)n1`, 698 s; under `COc1ccc(-c2noc(C3CC(=O)N(c4ccc5c(c4)OCO5)C3)n2)c(OC)c1` (stereo not drawn), 816 s. Take `Cc1csc(-c2csc(S(=O)(=O)N3CCC(Cc4ccccc4)CC3)c2)n1`: the RP-LC retention time stood at 1270 s. To `CC(C)S(=O)(=O)N1CC(c2nc(CCOCc3ccccc3)no2)C1` belongs 914 s; to `Cc1ccc2c(c1)N(C(=O)Cn1ccn3nc(-c4ccccc4)c(CO)c3c1=O)CCO2`, 908 s; to `CCCn1cnc2cc(-c3noc(CNC(=O)c4ccc(C)cc4)n3)ccc21`, 687 s. To `CC(C)[C@H]1C(=O)O[C@@H]2CCN3CC=C(COC(=O)[C@](C)(O)[C@]1(C)O)[C@H]23` belongs 584 s; to `COCCCn1c(=O)c2ccccc2n(Cc2nc(-c3ccc(F)cc3)no2)c1=O`, 1010 s; to `CCOC(=O)COc1cc(-c2ccc(C)cc2)nc2ccc(NC(=O)c3cccs3)cc12`, 830 s. Under `O=C1COc2cc(S(=O)(=O)N3CCCC3C(=O)NCCN3CCCC3)c(Cl)cc2N1` (stereo not drawn) stands 567 s; under `COc1ccc(OC)c(NC(=O)C2CCCN(S(=O)(=O)c3cc(-c4noc(C)n4)cs3)C2)c1` (stereo not drawn), 966 s; under `OC(COc1ccc(Cl)cc1Cl)CN1CCCC1` (stereo not drawn), 570 s.

As to `CCCNC(=O)N(CC(=O)N1CCc2sccc2C1COc1ccccc1)CC1CCCO1` (stereo not drawn), the RP-LC retention time worked out at 911 s. Under `CCc1nn2c(CNS(=O)(=O)c3ccc(C)cc3C)c(-c3ccccc3)nc2s1` stands 1020 s.
